# Measurements taken from US20230416299A1, “COMPOUND AND METHOD FOR THE TREATMENT AND DIAGNOSIS OF NEURODEGENERATIVE CONDITIONS” (Swansea University, priority 2013, published 2023).
# How the values were obtained:
# Lxrα = target: T1, Lxrα (Homo sapiens, UniProt Q13133); assay: Lxr-responsive luciferase reporter assay (Lxre + Lxrα) in SN4741 neural cells; assay type: cell-based, mouse; details: for Lxrα activation, luciferase activity: 10 μM, 24 h
# T1 construct: expressed in transfected cells; host or cells: SN4741 mouse neuronal cell line
# T1 sequence (Q13133 1-447): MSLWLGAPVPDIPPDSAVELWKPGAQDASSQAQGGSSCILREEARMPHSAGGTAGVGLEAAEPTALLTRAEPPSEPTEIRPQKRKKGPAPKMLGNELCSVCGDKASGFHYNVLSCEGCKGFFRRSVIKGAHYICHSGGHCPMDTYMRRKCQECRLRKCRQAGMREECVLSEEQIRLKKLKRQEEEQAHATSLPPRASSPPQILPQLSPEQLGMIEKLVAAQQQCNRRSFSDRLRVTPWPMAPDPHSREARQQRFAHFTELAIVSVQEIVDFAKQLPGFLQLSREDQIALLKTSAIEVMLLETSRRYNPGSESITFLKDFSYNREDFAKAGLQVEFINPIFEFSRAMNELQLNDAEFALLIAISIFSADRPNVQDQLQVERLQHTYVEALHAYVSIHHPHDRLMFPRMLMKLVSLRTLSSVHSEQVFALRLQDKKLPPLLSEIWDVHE
# Description: (§1) Luciferase Reporter Assay.
# Lxrβ = target: T2, Lxrβ (Homo sapiens, UniProt P55055); assay: Lxr-responsive luciferase reporter assay (Lxre + Lxrβ) in SN4741 neural cells; assay type: cell-based, mouse; details: for Lxrβ activation, luciferase activity: SN4741 cells, 10 μM, 24 h
# T2 construct: expressed in transfected cells; host or cells: SN4741 mouse neuronal cell line
# T2 sequence (P55055 1-460): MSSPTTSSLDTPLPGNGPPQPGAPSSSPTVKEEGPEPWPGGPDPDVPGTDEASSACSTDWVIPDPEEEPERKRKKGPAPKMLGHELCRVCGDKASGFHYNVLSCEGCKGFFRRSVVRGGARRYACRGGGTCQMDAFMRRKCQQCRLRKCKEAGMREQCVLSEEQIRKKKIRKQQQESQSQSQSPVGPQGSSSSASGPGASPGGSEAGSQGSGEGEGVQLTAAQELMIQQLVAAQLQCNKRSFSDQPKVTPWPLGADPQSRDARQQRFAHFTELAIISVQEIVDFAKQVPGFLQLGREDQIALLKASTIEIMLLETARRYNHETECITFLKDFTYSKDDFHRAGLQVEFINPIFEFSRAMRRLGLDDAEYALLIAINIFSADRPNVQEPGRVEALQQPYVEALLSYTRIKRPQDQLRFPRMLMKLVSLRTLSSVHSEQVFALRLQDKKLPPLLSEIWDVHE
# Description: as §1
# Lxrβ-LBD = target: T3, Lxrβ-LBD (Homo sapiens, UniProt P55055); assay: LanthaScreen TR-FRET Lxrβ coactivator assay; assay type: binding
# T3 construct: purchased Invitrogen
# T3 sequence (P55055 222-460 limits assumed): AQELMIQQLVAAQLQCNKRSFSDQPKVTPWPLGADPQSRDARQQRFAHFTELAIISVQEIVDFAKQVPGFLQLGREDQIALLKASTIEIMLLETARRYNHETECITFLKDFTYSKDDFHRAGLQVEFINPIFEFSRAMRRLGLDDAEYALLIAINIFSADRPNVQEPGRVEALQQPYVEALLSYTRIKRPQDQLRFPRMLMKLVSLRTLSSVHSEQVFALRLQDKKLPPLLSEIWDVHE
# Description: Lxrβ Ligand Binding Assay. For Lxrβ ligand binding activity measurement, the applicants used the LANTHASCREEN™ TR-FRET Lxrβ Coactivator Assay (Invitrogen). The assay uses a terbium (Tb)-labeled anti-GST antibody, a fluorescein-labeled coactivator peptide and the Lxrβ-LBD tagged with glutathione-S-transferase (GST). Binding of the agonist/ligand to Lxrβ-LBD causes a conformational change that result in an increase in the affinity of the Lxrβ for the coactivator peptide. The close proximity of the fluorescently labeled coactivator peptide to the Tb-labeled antibody causes an increase in the TR-FRET signal intensity. The TR-FRET ratio of 520/495 was calculated using a Victor multi label reader with an excitation wavelength of 340 nm and emission wavelengths of 520 nm and 495 nm. The activational capacity of potential ligands was tested in a […] polypropylene plate, following the manufacturer's protocol.
# [1] = system: Abca1, Abcg1 and Srebf1 transcript levels; assay: Quantitative PCR of Lxr target genes in SN4741 cells; assay type: cell-based, mouse; details: SN4741 cells treated 3 h
# Method: (§2) Quantitative PCR. Total RNA was extracted from SN4741 cells and zebrafish treated with the compounds of interest using the RNeasy Mini Kit (Qiagen), 1 μg was treated with RQ1 RNase-free DNase (Promega) and reverse transcribed using Superscript II Reverse Transcriptase (Invitrogen) and random primers (Invitrogen) (RT+ reaction). Parallel reactions without reverse transcriptase enzyme were done as a control (RT− reaction), and Sybergreen real-time quantitative PCR assays were performed. Expression levels were obtained by normalization with the value of the housekeeping gene encoding actin obtained for every sample in parallel assays.
# [2] = system: Islet-1:GFP transgenic zebrafish embryos; assay type: in vivo
# Method: as §2
# Zebrafish Strain and Mainrenance Zebrafish were raised on a 14/10 h day/night cycle and were kept at 28.5° C. Islet-1:GFP transgenic embryos were obtained via natural spawning and staged in hours or days post fertilization (hpf and dpf) according to Kimmel et al). Embryos older than 24 hpf were treated with 0.03% phenylthiourea (PTU) to inhibit pigmentation. MO injections were performed using splice site specific zebrafish 1xr MO. MO injected embryos were immediately dechorionated and transferred to a 96 well plate and exposed to dimethyl sulfoxide (DMSO) treated or ligand treated medium.
# Compound Exposure. Islet-1:GFP embryos were collected by natural mating and immediately (at 1 cell stage) dechorionated and transferred to a 96 well plate. Each of the compounds tested were obtained as 10 mM stock and diluted in embryo medium to a final concentration of 10 μM, and 200 μL was added to each well. DMSO or propan-2-ol treated embryo medium was taken as control. Ligand solutions were replaced every 12 h with fresh ligand solution prepared in PTU treated embryo medium. Embryos were collected at 48 hpf, fixed for 4 h at room temperature with 4% paraformaldehyde and then washed and kept in PBST. Immunocytochemistry was performed using an anti-GFP antibody and fluorescence was viewed and photographed using a Zeiss Axioplan compound microscope and a Zeiss Axiocam digital camera.
# [3] = system: mouse E11.5 brain primary cultures; assay: Mouse E11.5 brain primary cultures (Islet1+, active caspase 3+, BrdU, Nkx6.1 counts); assay type: cell-based; details: for Number of Islet1+ cells: wild type cultures, 3 DIV; for Number of active caspase-3+ cells: 10 μM 3β,7α-diHCA, 3βH,7O-CA, 25-HC, low concentrations of 3β,7β-diHCA, 3β-HCA
# Method: Primary Brain Cultures. Brains from E11.5 mice were manually dissected, plated on poly-D-lysine (150,000 cells/cm2) and grown in serum-free N2 media consisting of 1:1 mixture of F12 and DMEM with 10 ng/mL insulin, 100 μg/mL apo-transferrin, 100 μM putrescine, 20 nM progesterone, 30 nM selenium, 6 mg/mL glucose, and 1 mg/mL BSA. Cells were treated for 3 days in vitro (DIV) with the compounds of interest, fixed with 4% PFA and processed for staining using appropriate antibodies.
# For BrdU analysis, cells were treated with BrdU one hour after plating and media was replaced with fresh medium after 16 h. After a further 2 days in culture, cells were treated for 30 min with 2N HCl and then immunocytochemistry was performed to evaluate the number of double BrdU+;Islet1+ cells (a measure of motor neuron neurogenesis). Hoechst staining was performed by permeabilizing cells with a 0.3% Triton-X 100/PBS solution for 5 min followed by incubation with Hoechst 33258 (Sigma) for 10 min.
# Antibodies and Detection Procedures. Cells were fixed in 4% PFA, washed in PBS and blocked in 5% normal goat serum/PBS for 1 h at room temperature. Primary antibodies were diluted in PBS (pH 7.4), 0.3% Triton X-100, 1% BSA and incubations were carried out overnight at +4° C. or at room temperature for 2 h. The antibodies used were anti-: BrdU (1:400; Abeam), Islet-1 (1:100; Developmental Studies Hybridoma Bank), cleaved caspase-3 (Asp175) (1:100; Cell Signaling Technology), tyrosine hydroxylase (TH;1:1000; Pel-Freeze) GABA (1:1,000; Sigma), Brn3a (1:250; Millipore), Nkx6.1 (1:200; Novus Biologicals), choline acetyltransferase (ChAT; 1:500; Millipore) and appropriate secondary antibodies (Jackson ImmunoResearch or Alexa). Cells positive for the corresponding marker were counted directly at the microscope at a magnification of 20 x. Cells were counted in every well, in eight consecutive fields (going from one side of the well to the other, passing through the center), in three different wells per experiment and in three different experiments per condition. Random pictures of the wells were taken for every condition to document the result, and representative pictures were subsequently selected to represent the quantitative data. Photos were acquired with a Zeiss Axioplan microscope and a Hamamatsu camera C4742-95 using the Openlab software.
# Fxr = target: T4, Fxr (Homo sapiens, UniProt Q96RI1); assay: Fxr-responsive luciferase reporter assay (Fxre + Fxr) in SN4741 neural cells; assay type: cell-based, mouse; details: 24 h
# T4 construct: expressed in transfected cells; host or cells: SN4741 mouse neuronal cell line
# T4 sequence (Q96RI1 1-486): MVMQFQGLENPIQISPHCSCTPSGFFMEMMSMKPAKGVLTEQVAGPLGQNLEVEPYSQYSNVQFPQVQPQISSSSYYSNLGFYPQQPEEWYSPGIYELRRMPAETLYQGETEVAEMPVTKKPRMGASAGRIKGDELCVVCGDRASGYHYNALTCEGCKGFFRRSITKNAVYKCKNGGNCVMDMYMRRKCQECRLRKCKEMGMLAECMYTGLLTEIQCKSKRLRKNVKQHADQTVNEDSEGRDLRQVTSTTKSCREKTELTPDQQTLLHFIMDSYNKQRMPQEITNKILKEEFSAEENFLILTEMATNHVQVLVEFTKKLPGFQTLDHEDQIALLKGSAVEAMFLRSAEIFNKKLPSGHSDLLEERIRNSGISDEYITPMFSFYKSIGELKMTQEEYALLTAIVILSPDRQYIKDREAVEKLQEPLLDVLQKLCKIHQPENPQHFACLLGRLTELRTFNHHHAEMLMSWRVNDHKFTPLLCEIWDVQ
# Method: (§3) LC-ESI-MS on the LTQ-Orbitrap LC-ESI-MS and LC-ESI-MSn was performed using an Ultimate 3000 HPLC system (Dionex, Surrey, UK) linked to the ESI source of a LTQ-Orbitrap XL or LTQ-Orbitrap Velos (Thermo Fisher, San Jose, CA) mass spectrometer. Luciferase Reporter Assay. The ability of oxysterols and their acidic metabolites to activate several nuclear receptors i.e. Lxrα and β, Fxr, Vdr, Nurrl was tested in luciferase assays. Transient transfection studies were performed in the mouse neuronal cell line SN4741. This cell line was selected as the oxysterols and acidic metabolites tested were initially identified in CSF. Cells were plated in 24-well plates (5×10^5 cells/well) 24 hr before transfection and transfected with 1 μg of plasmid DNA/well complexed with 2 μL of Lipofectamine 2000 (Invitrogen). Cells were transfected with 400 ng of a Lxr-, Fxr-, Vdr- or Nurrl−responsive luciferase reporter construct, and 200 ng of Lxrα, Lxrβ, Fxr, Vdr or Nurrl. A reporter gene expressing the Renilla luciferase (pRL-TK, Promega) was co-transfected in all experiments as an internal control for normalization of transfection efficiency. After a 12 h incubation, the lipid/DNA mix was replaced with fresh 2.5% serum medium containing vehicle or appropriate ligand (10 μM), as specified in each experiment. […]
# [4] = system: Nur-related factor 1 (Nurrl)/retinoid X receptor (Rxr) heterodimers; details: SN4741 cells, 10 μM
# Method: as §3
smiles,measurement,setting,value
"CC(CCC[C@@H](C)[C@H]1CC[C@H]2[C@@H]3[C@@H](O)C=C4C[C@@H](O)CC[C@]4(C)[C@H]3CC[C@]12C)C(=O)O (stereo partly drawn) [3β,7β-diHCA, 3β,7β-dihydroxycholest-5-en-26-oic acid]","Lxrα activation, luciferase activity",Lxrα,have the ability to activate both Lxrs
same,"Lxrβ activation, luciferase activity",Lxrβ,have the ability to activate both Lxrs
same,Lxrβ activational capacity in combination with 22R-HC,Lxrβ; acid 10 μM + 22R-HC 10 μM,No additive effect was observed
same,"Competitor concentration with significant difference (p<0.05) from 10 μM 3β,7α-diHCA alone in TR-FRET Lxrβ coactivator assay","Lxrβ-LBD; added to 10 μM 3β,7α-diHCA",≥ 2 µM
same,"Competition with 3β,7α-diHCA in TR-FRET Lxrβ coactivator assay","Lxrβ-LBD; increasing concentrations with 3β,7α-diHCA at its most potent concentration","the effect of 3β,7α-diHCA was reduced to that of the latter acids"
same,"Abca1, Abcg1 and Srebf1 transcript levels",[1],"induced transcription, but to a lesser extent"
same,Toxicity to zebrafish embryos,[2]; 10 μM in medium,deleterious toxic effect which impaired the survival of the fish
same,Concentration at which toxicity is initiated (active caspase-3+ cells),"[3]; mouse, E11.5 mouse brain primary cultures, 3 days",1000 nM
same,Number of Islet1+ cells,[3],caused the loss of Islet1+ cells in the cultures
same,Number of active caspase-3+ cells,[3]; wt cultures,increased the number of active caspase-3+ cells
"C[C@H](CCC(=O)O)[C@H]1CC[C@H]2[C@@H]3CC=C4C[C@@H](O)CC[C@]4(C)[C@H]3CC[C@]12C [3βH-Δ^5-BA, 3β-hydroxychol-5-en-24-oic acid]","Fxr activation, luciferase activity",Fxr,"also activated Fxr, but was less potent than CDCA"
"CC1=C(/C=C/C(C)=C\C=C\C(C)=C\C(=O)O)C(C)(C)CCC1 [9-cis-RA, 9-cis-retinoic acid]",Activation of DR5 element luciferase reporter,[4],activated this reporter
"C[C@H](CCCC(C)(C)O)[C@H]1CC[C@H]2[C@@H]3CC=C4C[C@@H](O)CC[C@]4(C)[C@H]3CC[C@]12C [25-HC, cholest-5-ene-3β,25-diol]","Lxrα activation, luciferase activity",Lxrα,activate Lxr
same,Lxr luciferase activity with the Lxr antagonist GGPP,Lxrα; metabolite 10 μM + GGPP 10 μM,similarly blocked
same,"Lxrβ activation, luciferase activity",Lxrβ,activate Lxr
same,Islet-GFP expression in cranial nerves,"[2]; 10 μM, 48 hpf",modest increase in the levels of Islet-1
same,Effect on active caspase-3+ cells with GGPP,"[3]; GGPP 10 μM, 3β,7β-diHCA, 3β-HCA at 2 μM",GGPP sensitive manner
same,Effect on Islet1+ cells in cultures from Lxrα−/−β−/− mice,[3]; Lxrα−/−β−/− cultures,blocked in cultures from Lxrα−/−β−/−animals
same,Number of Islet1+ cells,[3],increase the number of Islet1+ oculomotor cells
same,Effect on Islet1+ cells with Lxr antagonist GGPP,"[3]; wt cultures, GGPP 10 μM",inhibited by the Lxr antagonist GGPP
same,Number of active caspase-3+ cells,[3]; wt cultures,reduced the number of active caspase-3+ cells
